Assay results published in PubChem BioAssay AID2060340 (Molecular Pharmacology Branch, DTP, NCI, 2025).
“And” between values parts separate entries of the source, which are not always exact repeats. Equal values may be shown once. One block for each compound: values may come before it.

Tested on: 349418-098-R-PDC spheroids, viability, % test/control
Test: Anticancer human tumor 349418-098-R-PDC patient-derived lung adenocarcinoma cell line growth inhibition [IpAb]
Settings: spheroids with HUVEC and MSC; for viability, T/C: stronger effect = lower value
Summary of the method: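 Spheroids of 60% malignant cells, 25% HUVEC and 15% MSC were exposed to targeted agents combined with ipatasertib or abemaciclib. Doses started at or near clinical Cmax (10 microM when unknown) and fell in half-log steps.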
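Note: spheroids exposed to compounds for 7 days.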

IC50 (curve of compound): 183 nM and 205 nM
SMILES: C=CCn1c(=O)c2cnc(Nc3ccc(N4CCN(C)CC4)cc3)nc2n1-c1cccc(C(C)(C)O)n1
viability, T/C (compound 0.0316 µM): 91.8% and 105% | viability, T/C (compound 0.1 µM): 84.5% and 88.7% | viability, T/C (compound 0.316 µM): 18.8% and 26.7% | viability, T/C (compound 1 µM): 5.04% and 4.87% | viability, T/C (compound 3.16 µM): 4.87% and 4.84% | viability, T/C (compound 10 µM): 6.19% and 4.54%

SMILES: Cn1cnc2c(F)c(Nc3ccc(Br)cc3Cl)c(C(=O)NOCCO)cc21 + CCN1CCN(Cc2ccc(Nc3ncc(F)c(-c4cc(F)c5nc(C)n(C(C)C)c5c4)n3)nc2)CC1
IC50 (curve of first compound, second compound 0.01 µM): < 9.49 nM | IC50 (curve of first compound, second compound 0.0316 µM): < 9.49 nM | IC50 (curve of first compound, second compound 0.1 µM): < 9.49 nM | IC50 (curve of first compound, second compound 0.316 µM): < 9.49 nM | IC50 (curve of first compound, second compound 1 µM): < 9.49 nM | viability, T/C (second compound 0.01 µM, first compound 0.00949 µM): 41.1% | viability, T/C (second compound 0.01 µM, first compound 0.03 µM): 33.9% | viability, T/C (second compound 0.01 µM, first compound 0.0949 µM): 27.2% | viability, T/C (second compound 0.01 µM, first compound 0.3 µM): 28.7% | viability, T/C (second compound 0.01 µM, first compound 0.949 µM): 17.3% | viability, T/C (second compound 0.01 µM, first compound 3 µM): 8.8% | viability, T/C (second compound 0.0316 µM, first compound 0.00949 µM): 26.7% | viability, T/C (second compound 0.0316 µM, first compound 0.03 µM): 21.7% | viability, T/C (second compound 0.0316 µM, first compound 0.0949 µM): 18.9% | viability, T/C (second compound 0.0316 µM, first compound 0.3 µM): 17.9% | viability, T/C (second compound 0.0316 µM, first compound 0.949 µM): 12.1% | viability, T/C (second compound 0.0316 µM, first compound 3 µM): 7.93% | viability, T/C (second compound 0.1 µM, first compound 0.00949 µM): 15.1% | viability, T/C (second compound 0.1 µM, first compound 0.03 µM): 14.7% | viability, T/C (second compound 0.1 µM, first compound 0.0949 µM): 12% | viability, T/C (second compound 0.1 µM, first compound 0.3 µM): 11.2% | viability, T/C (second compound 0.1 µM, first compound 0.949 µM): 9.1% | viability, T/C (second compound 0.1 µM, first compound 3 µM): 6.69% | viability, T/C (second compound 0.316 µM, first compound 0.00949 µM): 12.1% | viability, T/C (second compound 0.316 µM, first compound 0.03 µM): 11.2% | viability, T/C (second compound 0.316 µM, first compound 0.0949 µM): 10.1% | viability, T/C (second compound 0.316 µM, first compound 0.3 µM): 9.23% | viability, T/C (second compound 0.316 µM, first compound 0.949 µM): 8.49% | viability, T/C (second compound 0.316 µM, first compound 3 µM): 7.04% | viability, T/C (second compound 1 µM, first compound 0.00949 µM): 9.97% | viability, T/C (second compound 1 µM, first compound 0.03 µM): 10.1% | viability, T/C (second compound 1 µM, first compound 0.0949 µM): 10.6% | viability, T/C (second compound 1 µM, first compound 0.3 µM): 8.23% | viability, T/C (second compound 1 µM, first compound 0.949 µM): 8.1% | viability, T/C (second compound 1 µM, first compound 3 µM): 6.68%
